# Experiments:
# [1] = system: SETVI: green foxtail (Setaria viridis); assay: Post-emergent Test III, herbicidal activity in wheat and barley; assay type: in vivo; conditions: for pest or weed control at 35 g/ha / pest or weed control at 70 g/ha / pest or weed control at 140 g/ha: Setaria viridis, post-emergence, 504 h, read-out: Visual Growth Reduction (%) 21 Days After Application SETVI; for pest or weed control at 35 g/ha: 35 g ai/ha; for pest or weed control at 70 g/ha: 70 g ai/ha; for pest or weed control at 140 g/ha: 140 g ai/ha; for GR50 SETVI / GR80 SETVI: probit analysis, 21 days after application; for GR50 SETVI: dose for growth reduction of 50 percent; for GR80 SETVI: dose for growth reduction of 80 percent
# In short: (§1)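 GR20, GR50, GR80 and GR90 come from probit analysis of visual injury scores (0 = none, 100 = complete kill) taken 21 d after treatment. Foliar application was by track sprayer delivering 187 L/ha at five rates, from high down to 1/16×, onto greenhouse plants at the 2–3 leaf stage, with solvent-blank controls.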
# [2] = system: APESV: bentgrass (Apera spica-venti); assay: as above; assay type: in vivo; conditions: for pest or weed control at 35 g/ha / pest or weed control at 70 g/ha / pest or weed control at 140 g/ha: Apera spica-venti, post-emergence, 504 h, read-out: Visual Growth Reduction (%) 21 Days After Application APESV; for pest or weed control at 35 g/ha: 35 g ai/ha; for pest or weed control at 70 g/ha: 70 g ai/ha; for pest or weed control at 140 g/ha: 140 g ai/ha; for GR50 APESV / GR80 APESV: probit analysis, 21 days after application; for GR50 APESV: dose for growth reduction of 50 percent; for GR80 APESV: dose for growth reduction of 80 percent
# In short: as §1
# [3] = system: HORSS: barley, including spring and winter (Hordeum vulgare); assay: as above; assay type: in vivo; conditions: for pest or weed control at 35 g/ha / pest or weed control at 70 g/ha / pest or weed control at 140 g/ha: Hordeum vulgare, post-emergence, 504 h, read-out: Visual Growth Reduction (%) 21 Days After Application HORSS; for pest or weed control at 35 g/ha: 35 g ai/ha; for pest or weed control at 70 g/ha: 70 g ai/ha; for pest or weed control at 140 g/ha: 140 g ai/ha; for GR20 HORSS: probit analysis, dose for growth reduction of 20 percent, 21 days after application, crop
# In short: as §1
# [4] = system: MATSS: scented mayweed (Matricaria chamomilla), pineappleweed (Matricaria matricarioides); assay: as above; assay type: in vivo; conditions: for pest or weed control at 35 g/ha / pest or weed control at 70 g/ha / pest or weed control at 140 g/ha: Matricaria chamomilla, post-emergence, 504 h, read-out: Visual Growth Reduction (%) 21 Days After Application MATSS; for pest or weed control at 35 g/ha: 35 g ai/ha; for pest or weed control at 70 g/ha: 70 g ai/ha; for pest or weed control at 140 g/ha: 140 g ai/ha; for GR50 MATSS / GR80 MATSS: probit analysis, 21 days after application; for GR50 MATSS: dose for growth reduction of 50 percent; for GR80 MATSS: dose for growth reduction of 80 percent
# In short: as §1
# [5] = system: LOLSS: ryegrass including, Italian ryegrass (Lolium multiflorum), rigid ryegrass (Lolium rigidum), annual ryegrass (Lolium multiflorum subsp. Gaudini); assay: as above; assay type: in vivo; conditions: probit analysis, 21 days after application; for GR50 LOLSS: dose for growth reduction of 50 percent; for GR80 LOLSS: dose for growth reduction of 80 percent
# In short: as §1
# [6] = as above; assay type: in vivo, Lolium multiflorum, Lolium rigidum; conditions: Lolium multiflorum, post-emergence, 504 h, read-out: Visual Growth Reduction (%) 21 Days After Application LOLSS; for pest or weed control at 35 g/ha: 35 g ai/ha; for pest or weed control at 70 g/ha: 70 g ai/ha; for pest or weed control at 140 g/ha: 140 g ai/ha
# In short: as §1
# [7] = system: TRZSS: wheat, including spring and winter (Triticum aestivum); assay: as above; assay type: in vivo; conditions: for pest or weed control at 35 g/ha / pest or weed control at 70 g/ha / pest or weed control at 140 g/ha: Triticum aestivum, post-emergence, 504 h, read-out: Visual Growth Reduction (%) 21 Days After Application TRZSS; for pest or weed control at 35 g/ha: 35 g ai/ha; for pest or weed control at 70 g/ha: 70 g ai/ha; for pest or weed control at 140 g/ha: 140 g ai/ha; for GR20 TRZSS: probit analysis, dose for growth reduction of 20 percent, 21 days after application, crop
# In short: as §1
# [8] = system: KCHSC: kochia (Kochia scoparia); assay: as above; assay type: in vivo; conditions: for pest or weed control at 35 g/ha / pest or weed control at 70 g/ha / pest or weed control at 140 g/ha: Bassia scoparia, post-emergence, 504 h, read-out: Visual Growth Reduction (%) 21 Days After Application KCHSC; for pest or weed control at 35 g/ha: 35 g ai/ha; for pest or weed control at 70 g/ha: 70 g ai/ha; for pest or weed control at 140 g/ha: 140 g ai/ha; for GR50 KCHSC / GR80 KCHSC: probit analysis, 21 days after application; for GR50 KCHSC: dose for growth reduction of 50 percent; for GR80 KCHSC: dose for growth reduction of 80 percent
# In short: as §1
Compound,pest or weed control at 35 g/ha [1] [%],pest or weed control at 70 g/ha [1] [%],pest or weed control at 140 g/ha [1] [%],GR50 SETVI [1] [g ai/ha],GR80 SETVI [1] [g ai/ha],pest or weed control at 35 g/ha [2] [%],pest or weed control at 70 g/ha [2] [%],pest or weed control at 140 g/ha [2] [%],GR50 APESV [2] [g ai/ha],GR80 APESV [2] [g ai/ha],pest or weed control at 35 g/ha [3] [%],pest or weed control at 70 g/ha [3] [%],pest or weed control at 140 g/ha [3] [%],GR20 HORSS [3] [g ai/ha],pest or weed control at 35 g/ha [4] [%],pest or weed control at 70 g/ha [4] [%],pest or weed control at 140 g/ha [4] [%],GR50 MATSS [4] [g ai/ha],GR80 MATSS [4] [g ai/ha],GR50 LOLSS [5] [g ai/ha],other results
Nc1c(F)c(-c2ccc(Br)cc2)nc(C(=O)O)c1Cl [Compound 20],95 to 100,95 to 100,95 to 100,4,10,85 to 94,85 to 94,85 to 94,2,12,85 to 94,95 to 100,95 to 100,1,95 to 100,95 to 100,95 to 100,1,1,25,GR80 LOLSS [5]: >140 g ai/ha; pest or weed control at 35 g/ha [6]: 45 to 59%; pest or weed control at 70 g/ha [6]: 60 to 74%; pest or weed control at 140 g/ha [6]: 60 to 74%; pest or weed control at 35 g/ha [7]: 85 to 94%; pest or weed control at 70 g/ha [7]: 85 to 94%; pest or weed control at 140 g/ha [7]: 85 to 94%; GR20 TRZSS [7]: 1 g ai/ha; pest or weed control at 35 g/ha [8]: 95 to 100%; pest or weed control at 70 g/ha [8]: 95 to 100%; pest or weed control at 140 g/ha [8]: 95 to 100%; GR50 KCHSC [8]: 2 g ai/ha; GR80 KCHSC [8]: 5 g ai/ha
N#Cc1ccc(-c2nc(C(=O)O)c(Cl)c(N)c2F)cc1 [Compound 39],30 to 44,45 to 59,60 to 74,68,>140,30 to 44,45 to 59,60 to 74,70,>140,30 to 44,45 to 59,60 to 74,18,95 to 100,95 to 100,95 to 100,1,1,82,GR80 LOLSS [5]: >140 g ai/ha; pest or weed control at 35 g/ha [6]: 30 to 44%; pest or weed control at 70 g/ha [6]: 45 to 59%; pest or weed control at 140 g/ha [6]: 60 to 74%; pest or weed control at 35 g/ha [7]: 75 to 84%; pest or weed control at 70 g/ha [7]: 75 to 84%; pest or weed control at 140 g/ha [7]: 85 to 94%; GR20 TRZSS [7]: 1 g ai/ha; pest or weed control at 35 g/ha [8]: 75 to 84%; pest or weed control at 70 g/ha [8]: 85 to 94%; pest or weed control at 140 g/ha [8]: 85 to 94%; GR50 KCHSC [8]: 3 g ai/ha; GR80 KCHSC [8]: 40 g ai/ha
"Nc1c(F)c(-c2ccc(I)cc2)nc(C(=O)O)c1Cl [Compound 45, 4-amino-3-chloro-5-fluoro-6-(4-iodophenyl)picolinic acid]",60 to 74,85 to 94,95 to 100,18,52,85 to 94,85 to 94,95 to 100,8,25,85 to 94,85 to 94,95 to 100,1,85 to 94,95 to 100,95 to 100,2,29,20,GR80 LOLSS [5]: 69 g ai/ha; pest or weed control at 35 g/ha [6]: 60 to 74%; pest or weed control at 70 g/ha [6]: 75 to 84%; pest or weed control at 140 g/ha [6]: 85 to 94%; pest or weed control at 35 g/ha [7]: 85 to 94%; pest or weed control at 70 g/ha [7]: 85 to 94%; pest or weed control at 140 g/ha [7]: 85 to 94%; GR20 TRZSS [7]: 1 g ai/ha; pest or weed control at 35 g/ha [8]: 85 to 94%; pest or weed control at 70 g/ha [8]: 95 to 100%; pest or weed control at 140 g/ha [8]: 95 to 100%; GR50 KCHSC [8]: 2 g ai/ha; GR80 KCHSC [8]: 9 g ai/ha
"COC(=O)c1nc(-c2ccc(Br)c(F)c2F)cc(N)c1Cl [Compound 114, methyl 4-amino-6-(4-bromo-2,3-difluorophenyl)-3-chloropicolinate]",0 to 29,0 to 29,0 to 29,>140,>140,0 to 29,0 to 29,0 to 29,>140,>140,0 to 29,30 to 44,30 to 44,42,0 to 29,0 to 29,0 to 29,>140,>140,>140,GR80 LOLSS [5]: >140 g ai/ha; pest or weed control at 35 g/ha [6]: 0 to 29%; pest or weed control at 70 g/ha [6]: 0 to 29%; pest or weed control at 140 g/ha [6]: 0 to 29%; pest or weed control at 35 g/ha [7]: 30 to 44%; pest or weed control at 70 g/ha [7]: 45 to 59%; pest or weed control at 140 g/ha [7]: 45 to 59%; GR20 TRZSS [7]: 16 g ai/ha; pest or weed control at 35 g/ha [8]: 60 to 74%; pest or weed control at 70 g/ha [8]: 60 to 74%; pest or weed control at 140 g/ha [8]: 75 to 84%; GR50 KCHSC [8]: 3 g ai/ha; GR80 KCHSC [8]: >140 g ai/ha

# From patent publication US9113629B2, “4-amino-6-(4-substituted-phenyl)-picolinates and 6-amino-2-(4-substituted-phenyl)-pyrimidine-4-carboxylates and their use as herbicides” (DOW AGROSCIENCES LLC, priority 2013, dated 2015)
